Marks after values point to notes of the source that are not given here.
What was measured:
H69 = test: Tumor cell death by MTT, H69; type: cell-based, human; details: 20 nM
Protocol: The in vitro inhibitory effect of Compound A alone or in combination with a PARP inhibitor on tumor cell growth was tested using human small cell lung cancer (SCLC) cell lines, including H69 (ATCC® HTB-119™), H526 (ATCC® CRL-5811™) and H446 (TCHu196, National Collection of Authenticated Cell Cultures).
Briefly, the cells were seeded into a 96-well dish with RPMI-1640 (10-040-CV, Coming cellgro) containing 10% fetal bovine serum (10270-106, GIBCO), 1% penicillin and 1% streptomycin (BaSalMedia, S110JV), at an initial density of 3×10^3 cells per well ([…]), and cultured at a 37° C., 5% CO2 humidified incubator for 24 hours. Then, the culture media were added with Compound A (final concentration at 20 nM), olaparib (APEXBIO, A4154, a PARP inhibitor, final concentration at 10 μM), Compound A + olaparib (final concentrations at20 nM and 10 μM), or PBS (vehicle), respectively, and the cells were cultured for 48 hours. Then, cell viability was determined by MTT. The test was done in triplicate.
Cell death rate was calculated by the following formula.
Cell death rate=[1−(ODtest-ODvehicle)]×100%
Cell death rates were analyzed using student's t-test, and group differences were deemed statistically significant when the p-value was lower than 0.05. Zheng-Jun Jin's Q value was calculated using the formula Q=EA+B/(EA+EB-EA×EB) to assess the combined effect of Compound A and the PARP inhibitor, wherein EA+B, EA, and EB referred to the cell death rates caused by the combined treatment, Compound A treatment and PARP inhibitor treatment, respectively. A Q value higher than 1.15 meant a synergistic […] effect.
Another PARP inhibitor, rucaparib (APEXBIO, A4156), was tested alone or with Compound A for inhibitory effect on tumor cell growth, following the protocol of Example 9.

RS 4;11 = test: MTT tumor cell proliferation, RS 4;11; type: cell-based; details: Homo sapiens, RS4-11; RS 4;11, Acute lymphocytic leukemia, 72 hour
Protocol: (§1) as an exemplary compound of formula (I), was tested for its inhibitory effect on tumor cell proliferation in a MTT assay.
(§2) Briefly, cells at the log phase were collected, suspended in the cell culture medium at 4*10^4/ml density, and plated in 96-well plates, 90 μl per well. The plates were kept in a 5% CO2 and 37° C. incubator for 2 hours, and then added with 100 μg/ml, 10 μg/ml, 1 μg/ml, 0.1 μg/ml, 0.01 μg/ml or 0.001 μg/ml Compound A, 4 replicates for each cell at each compound concentration. DMSO was used in the positive control group, and another negative group was also set. After 72 hour incubation in the same incubator, 20 μl 5 mg/ml MTT reagent was added to each well. After another 4 hour incubation, each well was added with 100 μl SDS and further incubated for 12 hours. Absorbance at 570 nm was read in a reader, and IC50 was calculated.

MDA-MB-231 = test: MTT tumor cell proliferation, MDA-MB-231; type: cell-based; details: Homo sapiens; MDA-MB-231, Breast cancer, 72 hour
Protocol: as §1, §2

[1] = tested on: A549 human non-small cell lung cancer cells; test: A549 non-small cell lung cancer xenograft in mice; details: D0, 3, 6, 9; for T/C: D18
Protocol: Mice body weights and tumor sizes were measured 2 to 3 times a week. The tumor volume (V) was calculated as (length× width^2)/2. T/C (%) was calculated as (T-T0)/(C-C0)×100, wherein T and C represented the tumor volumes in the administration group and the vehicle group respectively at the end of the experiment, while T0 and C0 represented the tumor volumes in the administration group and the vehicle group respectively at the beginning of the experiment. And RTV was calculated as (Tumor volume at Day N/Tumor volume at Day 0). Mice were sacrificed on Day-14.
BALB/cA-nude mice, 5-6 weeks old, purchased from Shanghai SLAC Laboratory Animal Co., Ltd, were subcutaneously inoculated with A549 human non-small cell lung cancer cells (from ATCC).
Mice body weights and tumor sizes were measured 2 to 3 times a week. The tumor volume, T/C and RTV were calculated as described above. Mice were sacrificed on Day 18.

Reh = test: MTT tumor cell proliferation, Reh; type: cell-based; details: Homo sapiens, Acute lymphocytic leukemia, 72 hour
Protocol: as §1, §2

THP-1 = test: MTT tumor cell proliferation, THP-1; type: cell-based; details: Homo sapiens; THP-1, Acute monocytic leukemia, 72 hour
Protocol: as §1, §2

SNU-5 = test: MTT tumor cell proliferation, SNU-5; type: cell-based; details: Homo sapiens; SNU-5, Gastric cancer, 72 hour
Protocol: as §1, §2

PI3K δ isoform = PI3K δ isoform (Homo sapiens, UniProt O00329); test: biochemical
Sequence of PI3K δ isoform (O00329 whole entry, canonical isoform): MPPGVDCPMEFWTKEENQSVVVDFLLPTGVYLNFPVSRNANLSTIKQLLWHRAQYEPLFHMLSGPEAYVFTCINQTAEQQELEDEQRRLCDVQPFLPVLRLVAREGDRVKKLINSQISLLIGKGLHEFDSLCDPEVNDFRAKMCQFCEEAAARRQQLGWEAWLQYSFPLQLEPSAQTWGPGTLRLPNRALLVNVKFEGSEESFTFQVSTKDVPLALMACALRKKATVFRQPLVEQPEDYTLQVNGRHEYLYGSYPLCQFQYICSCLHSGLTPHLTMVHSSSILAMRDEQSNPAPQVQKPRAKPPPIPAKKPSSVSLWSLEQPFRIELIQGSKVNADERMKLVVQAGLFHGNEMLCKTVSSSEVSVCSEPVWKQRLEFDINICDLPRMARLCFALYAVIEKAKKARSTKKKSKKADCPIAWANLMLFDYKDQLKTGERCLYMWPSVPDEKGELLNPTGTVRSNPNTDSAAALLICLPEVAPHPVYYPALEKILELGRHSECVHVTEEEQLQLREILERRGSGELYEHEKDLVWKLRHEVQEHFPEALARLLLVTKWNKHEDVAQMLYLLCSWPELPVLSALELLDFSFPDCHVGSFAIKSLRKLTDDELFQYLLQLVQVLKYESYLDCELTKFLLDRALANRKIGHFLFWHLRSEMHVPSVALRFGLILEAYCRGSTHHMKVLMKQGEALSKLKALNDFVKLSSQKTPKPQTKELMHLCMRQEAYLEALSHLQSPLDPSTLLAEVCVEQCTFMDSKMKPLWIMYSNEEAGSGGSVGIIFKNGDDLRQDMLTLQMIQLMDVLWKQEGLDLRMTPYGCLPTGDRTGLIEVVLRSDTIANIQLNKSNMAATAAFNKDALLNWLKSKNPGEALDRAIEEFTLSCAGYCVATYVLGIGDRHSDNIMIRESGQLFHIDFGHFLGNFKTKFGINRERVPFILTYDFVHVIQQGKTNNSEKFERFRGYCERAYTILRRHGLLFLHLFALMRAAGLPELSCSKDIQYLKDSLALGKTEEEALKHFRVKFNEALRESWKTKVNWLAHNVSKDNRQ
Sequence of PI3K δ isoform (P27986 whole entry partner, canonical isoform): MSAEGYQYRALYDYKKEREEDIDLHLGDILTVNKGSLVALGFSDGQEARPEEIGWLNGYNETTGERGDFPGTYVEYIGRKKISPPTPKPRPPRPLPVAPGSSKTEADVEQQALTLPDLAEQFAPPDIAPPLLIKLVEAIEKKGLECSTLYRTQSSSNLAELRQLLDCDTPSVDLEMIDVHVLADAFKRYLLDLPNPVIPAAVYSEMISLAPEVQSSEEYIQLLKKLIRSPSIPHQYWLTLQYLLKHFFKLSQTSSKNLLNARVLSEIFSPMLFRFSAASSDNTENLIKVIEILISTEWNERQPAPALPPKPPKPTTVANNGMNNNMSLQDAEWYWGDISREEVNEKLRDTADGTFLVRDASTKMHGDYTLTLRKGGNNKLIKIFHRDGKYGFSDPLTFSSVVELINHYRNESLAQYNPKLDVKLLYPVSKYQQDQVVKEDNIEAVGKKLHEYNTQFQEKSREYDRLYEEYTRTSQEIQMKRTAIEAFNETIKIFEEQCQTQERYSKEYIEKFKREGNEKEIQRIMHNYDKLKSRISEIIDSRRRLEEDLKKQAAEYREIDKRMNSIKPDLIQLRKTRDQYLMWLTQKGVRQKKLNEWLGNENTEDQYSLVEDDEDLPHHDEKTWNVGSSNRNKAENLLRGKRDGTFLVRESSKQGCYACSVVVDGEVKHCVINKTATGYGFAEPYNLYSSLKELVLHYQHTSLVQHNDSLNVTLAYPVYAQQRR

SGC-7901 = test: MTT tumor cell proliferation, SGC-7901; type: cell-based; details: Homo sapiens; SGC-7901, Gastric cancer, 72 hour
Protocol: as §1, §2

PI3K α isoform = PI3K α isoform (Homo sapiens, UniProt P42336); details: one of the other three isoforms
Sequence of PI3K α isoform (P42336 whole entry, canonical isoform): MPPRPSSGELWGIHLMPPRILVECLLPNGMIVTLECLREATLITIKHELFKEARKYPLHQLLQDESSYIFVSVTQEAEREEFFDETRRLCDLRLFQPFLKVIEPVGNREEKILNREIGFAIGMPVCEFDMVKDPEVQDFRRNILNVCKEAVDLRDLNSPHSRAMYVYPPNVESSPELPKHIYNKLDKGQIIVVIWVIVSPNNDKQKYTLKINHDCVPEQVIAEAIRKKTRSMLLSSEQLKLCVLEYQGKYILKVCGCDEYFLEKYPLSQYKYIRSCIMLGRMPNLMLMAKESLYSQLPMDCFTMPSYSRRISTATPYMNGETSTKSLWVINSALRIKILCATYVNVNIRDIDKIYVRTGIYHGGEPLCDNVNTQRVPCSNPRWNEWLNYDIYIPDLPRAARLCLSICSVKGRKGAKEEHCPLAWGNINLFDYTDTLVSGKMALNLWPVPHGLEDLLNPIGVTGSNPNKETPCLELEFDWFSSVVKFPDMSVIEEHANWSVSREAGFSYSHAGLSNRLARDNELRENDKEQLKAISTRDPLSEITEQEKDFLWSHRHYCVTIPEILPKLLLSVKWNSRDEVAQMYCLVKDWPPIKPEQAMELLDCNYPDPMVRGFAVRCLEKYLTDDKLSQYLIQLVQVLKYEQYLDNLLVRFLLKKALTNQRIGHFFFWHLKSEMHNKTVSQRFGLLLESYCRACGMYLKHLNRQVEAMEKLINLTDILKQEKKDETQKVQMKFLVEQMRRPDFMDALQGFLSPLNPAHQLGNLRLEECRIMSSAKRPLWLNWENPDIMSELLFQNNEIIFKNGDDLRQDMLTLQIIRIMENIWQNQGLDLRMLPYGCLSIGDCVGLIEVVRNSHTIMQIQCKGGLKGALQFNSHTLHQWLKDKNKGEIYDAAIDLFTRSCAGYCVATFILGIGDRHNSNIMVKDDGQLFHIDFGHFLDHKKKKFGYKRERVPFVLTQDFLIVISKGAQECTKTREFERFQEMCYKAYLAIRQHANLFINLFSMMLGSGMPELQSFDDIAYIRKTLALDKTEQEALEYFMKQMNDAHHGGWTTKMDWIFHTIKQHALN
Sequence of PI3K α isoform (P27986 whole entry partner, canonical isoform): as the sequence (P27986 whole entry partner, canonical isoform) above

HL-60 = test: MTT tumor cell proliferation, HL-60; type: cell-based; details: Homo sapiens; HL-60, Acute promyelocytic leukemia, 72 hour
Protocol: as §1, §2

[2] = tested on: S180 murine sarcoma cancer cells; test: S180 sarcoma growth in mice; details: for TGI: tumor weight, Day 8
Protocol: On Day 8, the mice were weighed and sacrificed, and the tumors were collected and weighed.
Tumor growth inhibition (TGI) was calculated by the following formula. Tumor growth inhibition=(average tumor weight in vehicle group-average tumor weight in administration group)/average tumor weight in vehicle group×100%

U87 = test: MTT tumor cell proliferation, U87; type: cell-based; details: Homo sapiens, U-87 MG; U87, Brain glioma, 72 hour
Protocol: as §1, §2

MV-4-11 = test: MTT tumor cell proliferation, MV-4-11; type: cell-based; details: Homo sapiens, MV4-11; MV-4-11, Acute myeloid leukemia, 72 hour
Protocol: as §1, §2

PI3K β isoform = PI3K β isoform (Homo sapiens, UniProt P42338); details: one of the other three isoforms
Sequence of PI3K β isoform (P42338 whole entry, canonical isoform): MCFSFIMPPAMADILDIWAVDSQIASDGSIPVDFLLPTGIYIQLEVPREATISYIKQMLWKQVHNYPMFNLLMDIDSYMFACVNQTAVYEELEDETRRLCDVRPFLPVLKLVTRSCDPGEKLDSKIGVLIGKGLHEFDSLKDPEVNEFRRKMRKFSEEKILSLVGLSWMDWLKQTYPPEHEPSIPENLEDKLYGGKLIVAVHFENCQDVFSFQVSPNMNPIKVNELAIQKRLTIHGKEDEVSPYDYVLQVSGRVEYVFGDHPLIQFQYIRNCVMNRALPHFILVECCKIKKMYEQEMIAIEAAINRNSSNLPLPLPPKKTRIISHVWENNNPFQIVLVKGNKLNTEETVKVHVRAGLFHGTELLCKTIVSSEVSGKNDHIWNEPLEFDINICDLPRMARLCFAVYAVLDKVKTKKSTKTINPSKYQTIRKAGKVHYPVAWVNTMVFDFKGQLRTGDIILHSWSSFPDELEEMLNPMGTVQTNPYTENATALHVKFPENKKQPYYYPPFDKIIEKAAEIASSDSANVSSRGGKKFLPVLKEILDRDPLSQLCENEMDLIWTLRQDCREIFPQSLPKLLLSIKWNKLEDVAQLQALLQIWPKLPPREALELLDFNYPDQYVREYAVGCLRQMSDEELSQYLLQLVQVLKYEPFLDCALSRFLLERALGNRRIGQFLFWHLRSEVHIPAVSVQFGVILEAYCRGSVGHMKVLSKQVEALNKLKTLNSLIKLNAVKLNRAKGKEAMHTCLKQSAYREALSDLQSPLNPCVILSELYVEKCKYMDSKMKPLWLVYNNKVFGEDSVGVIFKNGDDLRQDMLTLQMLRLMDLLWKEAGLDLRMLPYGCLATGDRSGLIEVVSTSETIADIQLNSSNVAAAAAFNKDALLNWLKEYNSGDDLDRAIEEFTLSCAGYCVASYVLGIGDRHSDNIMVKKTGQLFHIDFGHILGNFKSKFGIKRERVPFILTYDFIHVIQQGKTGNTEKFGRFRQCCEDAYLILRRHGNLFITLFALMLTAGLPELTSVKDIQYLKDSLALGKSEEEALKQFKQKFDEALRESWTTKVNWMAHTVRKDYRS
Sequence of PI3K β isoform (P27986 whole entry partner, canonical isoform): as the sequence (P27986 whole entry partner, canonical isoform) above

NCI-H460 = test: MTT tumor cell proliferation, NCI-H460; type: cell-based; details: Homo sapiens; NCI-H460, Lung cancer, 72 hour
Protocol: as §1, §2

c1cnc2ccc(Nc3nc(NC4CC4)c4nc[nH]c4n3)cc2c1 [Compound A]
Cell Death Rate/% 1 (H69; 48 hours, Table 10): 6.75% | Cell Death Rate/% 2 (H69; 48 hours, Table 10): 6.48% | Cell Death Rate/% 3 (H69; 48 hours, Table 10): 6.31% | Cell Death Rate/% mean (H69; 48 hours, Table 10): 6.51% | Cell Death Rate/% 1 (H69; Example 10, Table 11): 7.36% | Cell Death Rate/% 2 (H69; Example 10, Table 11): 7.65% | Cell Death Rate/% 3 (H69; Example 10, Table 11): 7.02% | Cell Death Rate/% mean (H69; Example 10, Table 11): 7.34% | IC50 (RS 4;11): 400 ± 100 nM | IC50 (MDA-MB-231): 3500 ± 100 nM | RTV at D18 ([1]; 15 mg/kg P.O.): 18.67 ± 12.89 | Tumor volume D0 ([1]; 15 mg/kg P.O.): 118 ± 21 mm^3 | Tumor volume D18 ([1]; 15 mg/kg P.O.): 2135 ± 1279 mm^3 | T/C ([1]; 15 mg/kg P.O.): 70.8% | RTV at D18 ([1]; 30 mg/kg P.O.): 12.58 ± 4.38 | Tumor volume D0 ([1]; 30 mg/kg P.O.): 113 ± 19 mm^3 | Tumor volume D18 ([1]; 30 mg/kg P.O.): 1449 ± 608 mm^3 | T/C ([1]; 30 mg/kg P.O.): 47.7* % | RTV at D18 ([1]; 60 mg/kg P.O.): 9.15 ± 5.33 | Tumor volume D0 ([1]; 60 mg/kg P.O.): 110 ± 11 mm^3 | Tumor volume D18 ([1]; 60 mg/kg P.O.): 1039 ± 669 mm^3 | T/C ([1]; 60 mg/kg P.O.): 34.7* % | IC50 (Reh): 800 ± 100 nM | IC50 (THP-1): 1600 ± 1600 nM | IC50 (SNU-5): 12100 ± 2000 nM | EC50 (PI3K δ isoform): ~90 nM | IC50 (SGC-7901): 3800 ± 600 nM | EC50, PI3K α isoform (PI3K α isoform): at the μM level | IC50 (HL-60): 500 ± 300 nM | Tumor weight on Day 8 ([2]; 60 mg/kg P.O., D1-4): 0.33 ± 0.13 g | TGI ([2]; 60 mg/kg P.O., D1-4): 82.8* % | Tumor weight on Day 8 ([2]; 80 mg/kg I.V., D1&D4): 1.10 ± 0.21 g | TGI ([2]; 80 mg/kg I.V., D1&D4): 42.7* % | Tumor weight on Day 8 ([2]; 80 mg/kg P.O., D1 &D4): 1.12 ± 0.34 g | TGI ([2]; 80 mg/kg P.O., D1 &D4): 41.7* % | IC50 (U87): 9700 ± 7000 nM | IC50 (MV-4-11): 300 ± 100 nM | EC50, PI3K β isoform (PI3K β isoform): at the μM level | IC50 (NCI-H460): 4000 ± 400 nM

From US20230087844A1, “USE OF N2-QUINCLINE OR ISOQUINOLINE SUBSTITUTED PURINE DERIVATIVES IN CANCER TREATMENT” (SHANGHAI HUAYU BIOTECHNOLOGY CO., LTD., priority 2020, published 2023)
